Results published in patent US11952365B2, “Anti-viral compounds” (Aligos Therapeutics, Inc., priority 2020, dated 2024).
Like-named read-outs stand apart in the source and are kept apart here.

Tests used:
HRV3C = HRV3C (Human rhinovirus 14, UniProt P03303); assay: HRV3C protease assay (duplex, SAMDI-MS); type: biochemical, HRV; details: 30 mins preincubation
Procedure: Protease assays were performed in 384-well low volume polypropylene microtiter plates at ambient temperature. For the duplex assay, 3CLpro and HRV3C was added using a Multidrop Combi (Thermo Scientific; Waltham, MA) and preincubated for 30 mins with small molecules. The reactions were initiated by the addition of the two peptide substrates. The reactions were incubated for 30 mins and quenched by the addition of 0.5% formic acid (final) with subsequent neutralization using 1% sodium bicarbonate (final). Internal standard peptides were added in 20 mM Hepes pH 8.0 for quantitation of the protease products. For SAMDI-MS analysis, 2 μL of each reaction mixture was transferred using a 384-channel automated liquid handler to SAMDI biochip arrays functionalized with a neutravidin-presenting self-assembled monolayer. The SAMDI arrays were incubated for 1 h in a humidified chamber to allow the specific immobilization of the biotinylated peptide substrates, cleaved products and internal standards. The samples were purified by washing the SAMDI arrays with deionized ultrafiltered water and dried with compressed air. A matrix comprising alpha-cyano cinnamic acid in 80% acetonitrile:20% aqueous ammonium citrate was applied in an automated format by dispensing 50 nL to each spot in the array. SAMDI-MS was performed using reflector-positive mode on an AB Sciex TOF-TOF 5800 System (AB Sciex, Framingham, MA) with 400 shots/spot analyzed in a random raster sampling. For data analysis, area under the curves (peaks) (AUCs) for the product and internal standard were calculated using the TOF/TOF Series Explorer (AB Sciex), and the amount of product formed was calculated using the equation (AUC product/AUC internal standard). The amount of product generated was calculated using the ratio of product area under the curve (AUC) divided by the AUC of the internal standard. Negative controls were pre-quenched with 0.5% formic acid final. Assay robustness was determined by Z-Factor. The IC50s were determined by fitting the curves using a four-parameter equation in Graphpad Prism 8.

human cathepsin L = biological target: T1, human cathepsin L (Homo sapiens, UniProt P07711); assay: cathepsin L assay; type: biochemical; details: 10 pM human cathepsin L, Z-FR-AMC 2 μM, class symbols
T1 construct: purchased R&D Systems
Procedure: For the cathepsin L assay, 10 pM of human cathepsin L (R&D Systems; Minneapolis, MN) was preincubated for 30 mins with test compounds. Reactions were initiated by the addition of a peptide substrate Z-FR-AMC (final concentration 2 μM, Anaspec; Fremont, CA). Fluorescence was measured at 2-minute intervals for 30 mins using a 355/460 excitation/emission filter module on an Envision plate reader (Perkin Elmer; Waltham, MA). The IC50 values were calculated for each assay by fitting the curves using a four-parameter equation in GraphPad Prism.

[1] = Cytotoxicity plates without OC43 virus (cell-titer-glo); type: cell-based, human; details: human; HeLa cells without OC43 virus, class symbols
Procedure: The human beta-coronavirus OC43 was purchased from ATCC (Manassas, VA) and propagated using HCT-8 human colorectal epithelial cells (ATCC). HeLa human cervical epithelial cells (ATCC) were used as susceptible host cell lines and were cultured using EMEM media, supplemented with 10% fetal bovine serum (FBS), 1% (v/v) penicillin/streptomycin (P/S), 1% (v/v) HEPES and 1% (v/v) Cellgro Glutagro™ supplement (all Corning, Manassas, VA) at 37° C. For the OC43 antiviral assay, 1.5×10^4 HeLa cells per well were plated in 100 μL complete media in white 96-well plates with clear bottoms at 37° C. for up to 24 h to facilitate attachment and allow cells to recover from seeding stresses. Next day, the cell culture medium was removed. Serially diluted compounds in 100 μL assay media (EMEM, 2% FBS, 1% P/S, 1% Cellgro Glutagro™ supplement, 1% HEPES) were added to the cells and incubated for 4H at 37° C. in a humidified 5% CO2 incubator. 100 μL of OC43 virus stock was diluted to a concentration known to produce optimal cytopathic effect, inducing 80-90% reduction in cell viability. 96-well plates were incubated for 6 (HeLa) days at 33° C.; each plate contains uninfected control wells as well as virus-infected wells that were not treated with compound. Cytotoxicity plates without the addition of OC43 virus were carried out in parallel. At the end of the incubation period, 100 μL cell culture supernatant was replaced with 100 μL cell-titer-glo reagent (Promega, Madison, WI) and incubated for at least 10 min at rt prior to measuring luminescence. Luminescence was measured on a Perkin Elmer (Waltham, MA) Envision plate reader. Antiviral % inhibition was calculated as follows: [(Compound treated cells infected sample)−(no compound infected control)]/[(Uninfected control)−(no compound infected control)]*100; Using GraphPad (San Diego, CA) prism software version 8.3.1, the antiviral dose-response plot was generated as a sigmoidal fit, log(inhibitor) vs response-variable slope (four parameters) model and the EC50 was calculated which is the predicted compound concentration corresponding to a 50% inhibition of the viral cytopathic effect.

3CLpro = 3CLpro (Severe acute respiratory syndrome coronavirus 2, UniProt P0DTD1); assay: SARS-CoV-2 3CLpro protease assay (duplex, SAMDI-MS); type: biochemical; set-up: For the duplex assay, 3CLpro and HRV3C was added; details: 3CLpro, 30 mins preincubation, class symbols; read-out: SARS-Cov-2 IC50
[2] = system: human beta-coronavirus OC43; assay: microbe, parasite or virus in culture; type: cell-based; details: Betacoronavirus 1, OC43, HeLa, 144 h, OC43 in HeLa cells, 6 days at 33° C., read-out: EC50
[3] = system: SARS-CoV-2-GHB-03021/2020; assay: microbe, parasite or virus in culture; type: cell-based; details: Severe acute respiratory syndrome coronavirus 2, Vero C1008, 96 h; read-out: VeroE6 + CP (EC50)
[4] = HRV3C, bound, read-out: HRV IC50
[5] = HRV3C, class symbols, read-out: HRV IC50

Structure (SMILES) | IC50 (HRV3C; [4]) [µM] | IC50 (human cathepsin L) [µM] | CC50 at 6 days [1] [µM] | IC50 (3CLpro) [µM] | EC50 ([2]; class symbols) [µM] | IC50 (HRV3C; HRV IC50, HRV3C, class symbols) [µM] | EC50 [3] [µM] | IC50 (HRV3C; [5]) [µM] | EC50 ([2]; bound) [µM]
COc1cccc2[nH]c(C(=O)N3C[C@H]4CCCC[C@H]4[C@@H]3C(=O)N[C@@H](C[C@@H]3CCCNC3=O)C(=O)COCc3ccccc3)cc12 (single isomer, unassigned) [Compound 59A_2] | > 10 | ≥ 10 | > 10 | 0.2 to 2 | 1 to 10 | – | – | – | –
C=CC[C@@H]1C[C@@H](C(=O)N[C@@H](C[C@@H]2CCNC2=O)C(=O)C(=O)NCc2ccccc2)N(C(=O)c2cc3ccccc3[nH]2)C1 [Compound 21] | – | – | > 10 | 0.2 to 2 | 0.1 to 1 | 2 to 20 | 10 to 100 | – | –
COc1cccc2[nH]c(C(=O)N3C[C@@H]4CCCC[C@@H]4[C@H]3C(=O)N[C@@H](C[C@@H]3CCCNC3=O)C(=O)CO)cc12 [Compound 59_1, (1S,3aR,7aS)—N—((S)-4-hydroxy-3-oxo-1-((S)-2-oxopiperidin-3-yl)butan-2-yl)-2-(4-methoxy-1H-indole-2-carbonyl)octahydro-1H-isoindole-1-carboxamide] | – | ≥ 10 | > 10 | < 0.02 | 0.1 to 1 | – | – | 2 to 20 | –
COc1cccc2[nH]c(C(=O)N3C[C@H]4CCCC[C@H]4[C@@H]3C(=O)N[C@@H](C[C@@H]3CCCNC3=O)C(=O)CO)cc12 [Compound 59_2, (1R,3aS,7aR)—N—((S)-4-hydroxy-3-oxo-1-((S)-2-oxopiperidin-3-yl)butan-2-yl)-2-(4-methoxy-1H-indole-2-carbonyl)octahydro-1H-isoindole-1-carboxamide] | > 10 | ≥ 10 | > 10 | 0.2 to 2 | 1 to 10 | – | – | – | –
COc1cccc2[nH]c(C(=O)N3CC4(C5CC5)CC3(C(=O)N[C@@H](C[C@@H]3CCNC3=O)C(=O)C(=O)NC3CC3)C4)cc12 [Compound 131] | – | ≥ 10 | > 10 | 0.02 to 0.2 | – | – | – | 0.02 to 0.2 | > 10
N#C[C@H](C[C@@H]1CCNC1=O)NC(=O)[C@@H]1[C@H]2CCC[C@H]2CN1C(=O)c1cc2c(Cl)ccc(C(F)(F)F)c2[nH]1 [Compound 175] | > 10 | ≥ 10 | > 10 | 0.2 to 2 | 1 to 10 | – | – | – | –
COc1ccc(Cl)c2cc(C(=O)N3C[C@@H]4CCC[C@@H]4[C@H]3C(=O)N[C@@H](C[C@@H]3CCNC3=O)C(=O)CO)[nH]c12 [Compound 176] | > 10 | ≥ 10 | > 10 | 0.02 to 0.2 | 0.1 to 1 | – | – | – | –
C#C[C@H](C[C@@H]1CCNC1=O)NC(=O)[C@@H]1[C@H]2CCC[C@H]2CN1C(=O)c1cc2c(Cl)ccc(Cl)c2[nH]1 [Compound 177, (1S,3aR,6aS)-2-(4,7-dichloro-1H-indole-2-carbonyl)-N-[(2S)-1-[(3S)-2-oxopyrrolidin-3-yl]but-3-yn-2-yl]-hexahydro-1H-cyclopenta[c]pyrrole-1-carboxamide] | > 10 | ≥ 10 | > 10 | 2 to 20 | – | – | – | – | > 10
COc1cc(F)c(F)c2[nH]c(C(=O)N3C[C@@H]4CCC[C@@H]4[C@H]3C(=O)N[C@@H](C[C@@H]3CCNC3=O)C(=O)CO)cc12 [Compound 184, (1S,3aR,6aS)-2-(6,7-difluoro-4-methoxy-1H-indole-2-carbonyl)-N-[(2S)-4-hydroxy-3-oxo-1-[(3S)-2-oxopyrrolidin-3-yl]butan-2-yl]-hexahydro-1H-cyclopenta[c]pyrrole-1-carboxamide] | – | ≥ 10 | – | < 0.02 | – | – | – | 2 to 20 | –
N#C[C@H](C[C@@H]1CCNC1=O)NC(=O)[C@@H]1[C@H]2CCC[C@H]2CN1C(=O)c1cc2c(OC3CC3)cc(Cl)cc2[nH]1 [Compound 185, (1S,3aR,6aS)-2-(6-chloro-4-cyclopropoxy-1H-indole-2-carbonyl)-N-[(1S)-1-cyano-2-[(3S)-2-oxopyrrolidin-3-yl]ethyl]-hexahydro-1H-cyclopenta[c]pyrrole-1-carboxamide] | > 10 | ≥ 10 | – | 0.2 to 2 | – | – | – | – | –
N#C[C@H](C[C@@H]1CCNC1=O)NC(=O)[C@@H]1[C@H]2CCC[C@H]2CN1C(=O)c1nc2c(Cl)ccc(Cl)c2[nH]1 [Compound 186] | > 10 | ≥ 10 | – | 0.2 to 2 | – | – | – | – | –
N#C[C@H](C[C@@H]1CCNC1=O)NC(=O)[C@@H]1[C@H]2CCC[C@H]2CN1C(=O)c1cc2c(Cl)cc(F)cc2[nH]1 [Compound 187] | > 10 | ≥ 10 | – | 0.2 to 2 | – | – | – | – | –
N#C[C@H](C[C@@H]1CCNC1=O)NC(=O)[C@@H]1[C@H]2CCC[C@H]2CN1C(=O)c1cc2c(Cl)cc(Cl)cc2[nH]1 [Compound 188] | > 10 | ≥ 10 | – | 0.2 to 2 | – | – | – | – | –
COc1ccc(F)c2[nH]c(C(=O)N3C[C@@H]4CCC[C@@H]4[C@H]3C(=O)N[C@H](C#N)C[C@@H]3CCNC3=O)cc12 [Compound 189] | > 10 | ≥ 10 | – | 0.2 to 2 | – | – | – | – | –
N#C[C@H](C[C@@H]1CCNC1=O)NC(=O)[C@@H]1[C@H]2CCC[C@H]2CN1C(=O)c1cc2c(OC(F)F)cccc2[nH]1 [Compound 190] | > 10 | ≥ 10 | – | 0.2 to 2 | – | – | – | – | –
COc1nccc2[nH]c(C(=O)N3C[C@@H]4CCC[C@@H]4[C@H]3C(=O)N[C@H](C#N)C[C@@H]3CCNC3=O)cc12 [Compound 191] | > 10 | ≥ 10 | – | 0.2 to 2 | – | – | – | – | –
COc1cc(Cl)cc2[nH]c(C(=O)N3C[C@@H]4CCC[C@@H]4[C@H]3C(=O)N[C@H](C#N)C[C@@H]3CCNC3=O)cc12 [Compound 192] | > 10 | ≥ 10 | – | 0.2 to 2 | – | – | – | – | –
CCOC(=O)c1cc(C(=O)N2C[C@@H]3CCC[C@@H]3[C@H]2C(=O)N[C@H](C#N)C[C@@H]2CCNC2=O)[nH]c1C [Compound 193] | > 10 | ≥ 10 | – | 0.2 to 2 | – | – | – | – | –
